Laboratory results from patent publication US8735414B2 (priority 2009, dated 2014).
pIC50: −log10 of the molar value.

Legend:
[1] = test system: bicistronic HCV replicon (replicon RNA, GenBank Accession No. AJ242654); test: HCV Replicon Assay; type: cell-based; conditions: Hepatitis C virus, 72 h, read-out: Replicon IC50

N#Cc1c(-c2ncc(S(=O)(=O)NC(CF)CF)cn2)n(-c2ccc(F)cc2)c2cc(OC(F)F)ccc12 [compound 477, 2-[3-cyano-6-(difluoromethoxy)-1-(4-fluorophenyl)-1H-indol-2-yl]-N-(1,3-difluoropropan-2-yl)pyrimidine-5-sulfonamide]
melting point: 213 to 216 °C | pIC50 [1]: > 6.30

C[C@H](NS(=O)(=O)c1ccc(-c2c(C#N)c3ccc(C(F)(F)F)cc3n2-c2ccccn2)nc1)C(F)(F)F [compound 952, 6-[3-cyano-1-(pyridin-2-yl)-6-(trifluoromethyl)-1H-indol-2-yl]-N-[(2S)-1,1,1-trifluoropropan-2-yl]pyridine-3-sulfonamide]
melting point: 173 to 176 °C | pIC50 [1]: > 6.30

Cc1ccc2c(c1)c(C#N)c(-c1ncc(S(=O)(=O)N[C@@H](C)C3CC3)cn1)n2C1CCC1 [compound 545, 2-(3-cyano-1-cyclobutyl-5-methyl-1H-indol-2-yl)-N-[(1S)-1-cyclopropylethyl]pyrimidine-5-sulfonamide]
melting point: 168 to 171 °C | pIC50 [1]: > 6.30

CC(C)NS(=O)(=O)c1cnc(-c2c(C#N)c3ccc(OC(F)(F)F)cc3n2C2CCC2)nc1 [compound 116, 2-[3-cyano-1-cyclobutyl-6-(trifluoromethoxy)-1H-indol-2-yl]-N-(propan-2-yl)pyrimidine-5-sulfonamide]
melting point: 200 to 203 °C | pIC50 [1]: > 6.30

CC(C)(C)NS(=O)(=O)c1ccc(-c2c(C(N)=O)c3cc(F)c(OC(F)F)cc3n2C2CCC2)nc1 [compound 723, 2-[5-(tert-butylsulfamoyl)pyridin-2-yl]-1-cyclobutyl-6-(difluoromethoxy)-5-fluoro-1H-indole-3-carboxamide]
melting point: 158 to 160 °C | pIC50 [1]: > 6.30

Cc1ccc2c(C#N)c(-c3ncc(S(=O)(=O)NC(CF)CF)cn3)n(C3CCCC3)c2c1 [compound 135, 2-(3-cyano-1-cyclopentyl-6-methyl-1H-indol-2-yl)-N-(1,3-difluoropropan-2-yl)pyrimidine-5-sulfonamide]
melting point: 229 to 231 °C | pIC50 [1]: > 6.30

CC(C)(C)S(=O)(=O)Nc1ccc(-c2c(C#N)c3cc(F)c(OC(F)F)cc3n2C2CCCCC2)cn1 [compound 1065, N-{5-[3-cyano-1-cyclohexyl-6-(difluoromethoxy)-5-fluoro-1H-indol-2-yl]pyridin-2-yl}-2-methylpropane-2-sulfonamide]
melting point: 278 to 280 °C | pIC50 [1]: > 6.30

C[C@H](NS(=O)(=O)c1ccc(-c2c(C#N)c3cc(F)ccc3n2-c2ncccn2)nc1)C(F)(F)F [compound 601, 6-[3-cyano-5-fluoro-1-(pyrimidin-2-yl)-1H-indol-2-yl]-N-[(2S)-1,1,1-trifluoropropan-2-yl]pyridine-3-sulfonamide]
melting point: 201 to 203 °C | pIC50 [1]: > 6.30

Cc1cc2c(cc1F)c(C(N)=O)c(-c1ccc(S(=O)(=O)N[C@@H](C)C(F)(F)F)cn1)n2C1CCOCC1 [compound 769, 5-fluoro-6-methyl-1-(tetrahydro-2H-pyran-4-yl)-2-(5-{[(2S)-1,1,1-trifluoropropan-2-yl]sulfamoyl}pyridin-2-yl)-1H-indole-3-carboxamide]
melting point: 261 to 264 °C | pIC50 [1]: > 6.30

Cc1ccc2c(C#N)c(-c3ncc(S(=O)(=O)NC(C)C)cn3)n(CC3CC3)c2c1 [compound 168, 2-[3-cyano-1-(cyclopropylmethyl)-6-methyl-1H-indol-2-yl]-N-(propan-2-yl)pyrimidine-5-sulfonamide]
melting point: 245 to 247 °C | pIC50 [1]: > 6.30

C[C@H](NS(=O)(=O)c1ccc(-c2c(C#N)c3cc(F)c(Cl)cc3n2C2CCC2)nc1)C(F)(F)F [compound 360, 6-(6-chloro-3-cyano-1-cyclobutyl-5-fluoro-1H-indol-2-yl)-N-[(2S)-1,1,1-trifluoropropan-2-yl]pyridine-3-sulfonamide]
melting point: 203 to 206 °C | pIC50 [1]: > 6.30

Cc1cc2c(cc1F)c(C#N)c(-c1ccc(S(=O)(=O)N[C@@H](C)C(F)(F)F)cn1)n2-c1ccc(F)c(C)n1 [compound 961, 6-[3-cyano-5-fluoro-1-(5-fluoro-6-methylpyridin-2-yl)-6-methyl-1H-indol-2-yl]-N-[(2S)-1,1,1-trifluoropropan-2-yl]pyridine-3-sulfonamide]
melting point: 240 to 246 °C | pIC50 [1]: > 6.30

CC(C)(C)S(=O)(=O)Nc1ccc(-c2c(C(N)=O)c3cc(F)c(C4CC4)cc3n2-c2ccccc2)cn1 [compound 1100, 2-{6-[(tert-butylsulfonyl)amino]pyridin-3-yl}-6-cyclopropyl-5-fluoro-1-phenyl-1H-indole-3-carboxamide]
melting point: 272 to 274 °C | pIC50 [1]: > 6.30

Cc1cc2c(cc1F)c(C(N)=O)c(-c1ccc(S(=O)(=O)NC(C)(C)C)cn1)n2-c1ccccc1 [compound 1116, 2-[5-(tert-butylsulfamoyl)pyridin-2-yl]-5-fluoro-6-methyl-1-phenyl-1H-indole-3-carboxamide]
melting point: 241.2 to 242.5 °C | pIC50 [1]: > 6.30

C[C@H](NS(=O)(=O)c1ccc(-c2c(C#N)c3ccc(F)cc3n2C2CCC2)nc1)C(F)(F)F [compound 395, 6-(3-cyano-1-cyclobutyl-6-fluoro-1H-indol-2-yl)-N-[(2S)-1,1,1-trifluoropropan-2-yl]pyridine-3-sulfonamide]
melting point: 171 to 172 °C | pIC50 [1]: > 6.30

CCn1c(-c2ccc(N(CC#N)S(=O)(=O)C3CC3)nc2)c(C#N)c2ccc(OC(C)C)cc21 [compound 294, N-{5-[3-cyano-1-ethyl-6-(propan-2-yloxy)-1H-indol-2-yl]pyridin-2-yl}-N-(cyanomethyl)cyclopropanesulfonamide]
melting point: 236 to 238 °C | pIC50 [1]: 5.70 to 6.30

CCCn1c(-c2ncc(S(=O)(=O)N[C@@H](C)C(F)(F)F)cn2)c(C#N)c2ccc(OC(F)F)cc21 [compound 400, 2-[3-cyano-6-(difluoromethoxy)-1-propyl-1H-indol-2-yl]-N-[(2S)-1,1,1-trifluoropropan-2-yl]pyrimidine-5-sulfonamide]
melting point: 207 to 208 °C | pIC50 [1]: > 6.30

C[C@H](NS(=O)(=O)c1ccc(-c2c(C#N)c3ccc(F)cc3n2CC2CC2)nc1)C(F)(F)F [compound 397, 6-[3-cyano-1-(cyclopropylmethyl)-6-fluoro-1H-indol-2-yl]-N-[(2S)-1,1,1-trifluoropropan-2-yl]pyridine-3-sulfonamide]
melting point: 174 to 175 °C | pIC50 [1]: > 6.30

COc1ccc2c(c1)c(C#N)c(-c1ccc(S(=O)(=O)N[C@@H](C)C(F)(F)F)cn1)n2C1CCC1 [compound 453, 6-(3-cyano-1-cyclobutyl-5-methoxy-1H-indol-2-yl)-N-[(2S)-1,1,1-trifluoropropan-2-yl]pyridine-3-sulfonamide]
melting point: 181 to 183 °C | pIC50 [1]: > 6.30

CCc1cc2c(cc1F)c(S(C)(=O)=O)c(-c1ccc(S(=O)(=O)NC(C)(C)C)cn1)n2-c1ncccn1 [compound 869, N-tert-butyl-6-(6-ethyl-5-fluoro-3-(methylsulfonyl)-1-(pyrimidin-2-yl)-1H-indol-2-yl)pyridine-3-sulfonamide]
melting point: 244 to 248 °C | pIC50 [1]: 5.70 to 6.30

C[C@H](NS(=O)(=O)c1ccc(-c2c(C#N)c3ccc(C4CC4)cc3n2C2CCC2)nc1)C1CC1 [compound 236, 6-(3-cyano-1-cyclobutyl-6-cyclopropyl-1H-indol-2-yl)-N-[(1S)-1-cyclopropylethyl]pyridine-3-sulfonamide]
melting point: 170 to 176 °C | pIC50 [1]: > 6.30

Cc1c(F)cc2c(C#N)c(-c3ccc(S(=O)(=O)NC(C)(C)C(F)(F)F)cn3)n(C3CCCC3)c2c1F [compound 580, 6-(3-cyano-1-cyclopentyl-5,7-difluoro-6-methyl-1H-indol-2-yl)-N-(1,1,1-trifluoro-2-methylpropan-2-yl)pyridine-3-sulfonamide]
melting point: 226 to 232 °C | pIC50 [1]: > 6.30

Cc1cnc(-n2c(-c3ccc(S(=O)(=O)N[C@@H](C)C(F)(F)F)cn3)c(C#N)c3cc(F)c(C)cc32)nc1 [compound 925, 6-[3-cyano-5-fluoro-6-methyl-1-(5-methylpyrimidin-2-yl)-1H-indol-2-yl]-N-[(2S)-1,1,1-trifluoropropan-2-yl]pyridine-3-sulfonamide]
melting point: 179 to 184 °C | pIC50 [1]: > 6.30

N#Cc1c(-c2ncc(S(=O)(=O)NC(CF)CF)cn2)n(C2CCC2)c2cc(OC(F)F)c(Cl)cc12 [compound 659, 2-[5-chloro-3-cyano-1-cyclobutyl-6-(difluoromethoxy)-1H-indol-2-yl]-N-(1,3-difluoropropan-2-yl)pyrimidine-5-sulfonamide]
melting point: 228 to 232 °C | pIC50 [1]: > 6.30

CC(C)n1c(-c2ccc(S(=O)(=O)NC(CF)CF)cn2)c(C#N)c2ccc(Cl)cc21 [compound 63, 6-[6-chloro-3-cyano-1-(propan-2-yl)-1H-indol-2-yl]-N-(1,3-difluoropropan-2-yl)pyridine-3-sulfonamide]
melting point: 200 to 202 °C | pIC50 [1]: > 6.30

Cc1cc2c(cc1Cl)c(C#N)c(-c1ccc(S(=O)(=O)N[C@@H](C)C(F)(F)F)cn1)n2-c1ncccn1 [compound 785, 6-[5-chloro-3-cyano-6-methyl-1-(pyrimidin-2-yl)-1H-indol-2-yl]-N-[(2S)-1,1,1-trifluoropropan-2-yl]pyridine-3-sulfonamide]
melting point: 210 to 212 °C | pIC50 [1]: > 6.30

N#Cc1c(-c2ccc(S(=O)(=O)NC3(C(F)(F)F)CC3)cn2)n(C2CCC2)c2cc(OC(F)F)c(F)cc12 [compound 808, 6-[3-cyano-1-cyclobutyl-6-(difluoromethoxy)-5-fluoro-1H-indol-2-yl]-N-[1-(trifluoromethyl)cyclopropyl]pyridine-3-sulfonamide]
melting point: 169 to 171 °C | pIC50 [1]: > 6.30

Cc1ccc2c(c1F)c(C#N)c(-c1ccc(S(=O)(=O)NC(C)(C)C(F)(F)F)cn1)n2C1CCCC1 [compound 614, 6-(3-cyano-1-cyclopentyl-4-fluoro-5-methyl-1H-indol-2-yl)-N-(1,1,1-trifluoro-2-methylpropan-2-yl)pyridine-3-sulfonamide]
melting point: 200 to 205 °C | pIC50 [1]: 5.70 to 6.30
